Measurements: patent US20100022457A1 (Bristol-Myers Squibb Company, priority 2006, published 2010)
Like-named read-outs stand apart in the source and are kept apart here. Where a SMILES comes first, the peptide text is derived from it. [ ]: non-standard residue; d: D form. The star is where a group is joined. ξ: configuration not given here. Ala(6-(2-MePh)pyridin-3-yl) = Cc1ccccc1-c1ccc(C[C@H](N)C(=O)O)cn1; Phe(4-(2-Et-4-HO-Ph)) = CCc1cc(O)ccc1-c1ccc(C[C@H](N)C(=O)O)cc1; Bip(2'-Et-4'-OMe) = CCc1cc(OC)ccc1-c1ccc(C[C@H](N)C(=O)O)cc1; Lactoyl(3-(imidazol-4-yl)) = O=C([C@@H](O)Cc1c[nH]cn1)*; Bip(2'-Me) = Cc1ccccc1-c1ccc(C[C@H](N)C(=O)O)cc1; d(αMePhe(2-F)) = C[C@@](N)(Cc1ccccc1F)C(=O)O; αMePhe(2-F) = C[C@](N)(Cc1ccccc1F)C(=O)O; ξαMePhe(2-F) = CC(N)(Cc1ccccc1F)C(=O)O; Thr(3ξ) = CC(O)[C@H](N)C(=O)O; ξαMeP = CC1(C(=O)O)CCCN1; Aib = CC(C)(N)C(=O)O; Moc = COC(=O)*

Experiments:
C57BL/6J-ob/ob mice = assay: Intraperitoneal glucose tolerance test (ipGTT) in ob/ob mice after subcutaneous injection; assay type: in vivo, mouse; conditions: for Potency in ob/ob mice ED50: sc injection, plasma glucose AUC in ipGTT; for effect on postprandial plasma glucose: sc in ob/ob mice, between 0 and 180 or 210 minutes
Description: Peptides were dissolved in an appropriate vehicle at a concentration in nmol/ml equivalent to the dose that was to be administered in nmol/kg so that each mouse would receive the same volume/weight of dosing solution. Male C57BL/6J-ob/ob mice (10 weeks old) were randomized into groups of 6 mice per group based on fed plasma glucose and body weight. After an overnight fast, mice were weighed and placed in the experimental lab. After 30 min in the environment, the mice were bled via tail tip at −30 min and immediately injected subcutaneously (sc) with vehicle or the peptide dissolved in vehicle (0.1 ml solution/100 g body weight). At time 0 the mice were bled and then injected intraperitoneally with 50% glucose (2 g/kg) to initiate the intraperitoneal glucose tolerance test (ipGTT). The mice were bled 30, 60, 120 and 180 min after the glucose injection. Blood samples were drawn into potassium EDTA, placed on ice during the study and subsequently centrifuged for 10 min at 3000 rpm at 4° C. Plasma samples were diluted 1-fold for glucose analysis in the Cobas System. Another 5 μl plasma sample was diluted 5-fold with 20 μl of Sample Diluent (Insulin ELISA assay kit, Crystal Chem Inc.) and stored at −20° C. for subsequent analysis using the Ultra Sensitive Mouse Insulin ELISA kit (Crystal Chem Inc.).

[1] = Exposure during ipGTT in ob/ob mice; assay type: in vivo, mouse; conditions: sc
[2] = Dog pharmacokinetic study (intravenous and subcutaneous, 67 μg/kg); assay type: in vivo; conditions: for half-life: read-out: t½ (converted)
Description: The pharmacokinetic parameters of the compound of SEQ ID NO:9 were determined in male beagle dogs (n=4, 14±1 kg). Following an overnight fast, each animal received the compound of SEQ ID NO:9 either as an intravenous bolus via femoral vein (67 μg/kg) or by subcutaneous injection given at near the shoulder blades (67 μg/kg). Each animal received both intravenous and subcutaneous doses with a one-week washout between doses following a crossover design. […] Serial blood samples were collected in EDTA-containing microcentrifuge tubes at predose, 0.083, 0.25, 0.5, 0.75, 1, 2, 4, 6, 8, 24, and 30 hours post-dose after intravenous administration; at predose, 0.25, 0.5, 0.75, 1, 2, 4, 6, 8, 24, and 30 hours post-dose after subcutaneous administration. Approximately 0.3 mL of blood was collected at each time point. Blood samples were immediately centrifuged at 4° C. The obtained plasma was frozen with dry ice and stored at −20° C. Plasma drug levels were determined using the LC-MS/MS assay described above.
Plasma samples from in vivo dog study were prepared for analysis by precipitating plasma proteins with two volumes of acetonitrile containing an internal standard. The samples were vortex mixed and removed the precipitated proteins by centrifugation. The resulting supernatants were transferred to a 96-well plate and 10 μL were injected for analysis. Samples were prepared with the Packard Multiprobe II and Quadra 96 Liquid Handling System.
The HPLC system consisted of two Shimadzu LC10AD pumps (Columbia, Md.), a CTC PAL autosampler (Leap Technologies, Switzerland). The column used was a YMC Hydrosphere C18 (2.0×50 mm, 3 μm) (YMC, Inc., Milford, Mass.). The column temperature was maintained at 50° C. and the flow rate was 0.3 mL/minute. The mobile phase A consisted of 10 mM ammonium formate and 0.1% formic acid in water and mobile phase B consisted of 0.1% formic acid in acetonitrile. The initial mobile phase composition was 5% B, and remained at 5% B for one minute to equilibrate the column. The composition was ramped to 95% B over two minutes and held there for one additional minute. The mobile phase was then returned to initial conditions in one minute. Total analysis time was five minutes. A switching valve was used. The eluents between 0-1 minute were diverted to the waste.
The HPLC was interfaced to a Sciex API 4000 mass spectrometer, (Applied Biosystems, Foster City, Calif.) and was equipped with a TurboIonspray ionization source. Ultra high purity nitrogen was used as the nebulizing and turbo gas. The temperature of turbo gas was set at 300° C. and the interface heater was set at 60° C. Data acquisition utilized selected reaction monitoring (SRM). Ions representing the (M+2H)^2+ species for the compound of SEQ ID NO:9, and (M+2H)^2+ for BMS-501143 (IS) were selected in Q1 and were collisionally dissociated with high purity nitrogen at a pressure of 3.5×10^−3 torr to form specific product ions which were subsequently monitored by Q3.
The standard curve concentrations, ranging from 1 to 1000 nM and from 4 to 5000 nM, were used for the in vivo samples obtained from low and high doses, respectively. The curves were fitted with a quadratic regression weighted by reciprocal […]. Standards were analyzed in duplicate. Quality control (QC) samples, prepared in blank matrix at the same concentrations as the standard were also analyzed in each analytical set. For the compound of SEQ ID NO:9, the calculated concentrations of more than 80% of the QCs were within 20% of nominal concentration, indicating acceptable assay performance.
The compound of SEQ ID NO:9 plasma concentration vs. time data were analyzed by noncompartmental methods using the […]™ software program. The Cmax and Tmax values were recorded directly from experimental observations. The AUC0-n and AUCtot values were calculated using a combination of linear and log trapezoidal summations. […]

[3] = Table I, vehicle propylene glycol/pH 7.4 phosphate buffer (1:1)
[4] = Table II, vehicle propylene glycol/pH 7.4 phosphate buffer (1:1)
[5] = Table I, vehicle 0.2 M Tris buffer (pH 8.0)
[6] = male, beagle, plasma, 67 ug/kg, dog, intravenous 67 μg/kg, Tables 6B/6C, vehicle not given
[7] = male, beagle, plasma, sc, 67 ug/kg, dog, subcutaneous 67 μg/kg, Tables 6B/6C (Table I footnote: 0.2 M Tris buffer pH 8.0)

| SMILES | Exposure/dose during ipGTT in ob/ob mice [1] | Exposure in dogs (sc@67 μg/kg) [2, 3] | Exposure in dogs (sc@67 μg/kg) [2, 4] | Exposure in dogs (sc@67 μg/kg) [2, 5] | Potency in ob/ob mice ED50 (C57BL/6J-ob/ob mice) | effect on postprandial plasma glucose (C57BL/6J-ob/ob mice) | also measured |
| --- | --- | --- | --- | --- | --- | --- | --- |
| CCc1cc(OC)ccc1-c1ccc(C[C@H](NC(=O)[C@H](CC(=O)O)NC(=O)[C@H](CO)NC(=O)[C@@H](NC(=O)[C@@](C)(Cc2ccccc2F)NC(=O)[C@@H](NC(=O)CNC(=O)[C@H](CCC(=O)O)NC(=O)C(C)(C)NC(=O)[C@@H](N)Cc2c[nH]cn2)C(C)O)C(C)O)C(=O)N[C@@H](Cc2ccc(-c3ccccc3C)cc2)C(N)=O)cc1 (stereo partly shown) [Compound I, reference compound] (H-H[Aib]EG[Thr(3ξ)][d(αMePhe(2-F))][Thr(3ξ)]SD[Bip(2'-Et-4'-OMe)][Bip(2'-Me)]-NH2) | 22 nM*h/nmol/kg | 0.089 µM·h | 0.089 µM·h | – | 50 nmol/kg | – | Potency in ob/ob mice: % AUC Reduction in Plasma Glucose in an IP Glucose Tolerance Test after SC Injection of Compound (C57BL/6J-ob/ob mice; 10 nmol/kg sc, relative to vehicle-treated group): −15% (p = 0.247, NS) |
| CCc1cc(OC)ccc1-c1ccc(C[C@H](NC(=O)[C@H](CC(=O)O)NC(=O)[C@H](CO)NC(=O)[C@@H](NC(=O)[C@](C)(Cc2ccccc2F)NC(=O)[C@@H](NC(=O)CNC(=O)[C@H](CCC(=O)O)NC(=O)[C@@H](C)NC(=O)[C@@H](N)Cc2c[nH]cn2)[C@@H](C)O)[C@@H](C)O)C(=O)N[C@@H](Cc2ccc(-c3ccccc3C)nc2)C(N)=O)cc1 [SEQ ID NO: 149] (H-H[dA]EGT[αMePhe(2-F)]TSD[Bip(2'-Et-4'-OMe)][Ala(6-(2-MePh)pyridin-3-yl)]-NH2) | – | – | 0.94 µM·h | – | – | – | – |
| CCc1cc(OC)ccc1-c1ccc(C[C@H](NC(=O)[C@H](CC(=O)O)NC(=O)[C@H](Cc2c[nH]cn2)NC(=O)[C@@H](NC(=O)C(C)(Cc2ccccc2F)NC(=O)[C@@H](NC(=O)CNC(=O)[C@H](CCC(=O)O)NC(=O)C2(C)CCCN2C(=O)[C@@H](O)Cc2c[nH]cn2)[C@@H](C)O)[C@@H](C)O)C(=O)N[C@@H](Cc2ccc(-c3ccccc3C)nc2)C(N)=O)cc1 (stereo partly shown) [SEQ ID NO: 151] ({Lactoyl(3-(imidazol-4-yl))}-[ξαMeP]EGT[ξαMePhe(2-F)]THD[Bip(2'-Et-4'-OMe)][Ala(6-(2-MePh)pyridin-3-yl)]-NH2) | 16 nM*h/nmol/kg | – | – | 1.566 µM·h | – | statistically significant decrease | AUC [2, 6]: 1.52 ± 0.424 µM·h; MRT [2, 6]: 4.4 ± 0.1 h; clearance ([2]; male, beagle, plasma, 67 ug/kg, dog, intravenous 67 μg/kg, Tables 6B/6C, vehicle not given, read-out: CLp): 0.49 ± 0.16 mL/min/kg; Vd ([2]; male, beagle, plasma, 67 ug/kg, dog, intravenous 67 μg/kg, Tables 6B/6C, vehicle not given, read-out: Vss): 0.13 ± 0.05 L/kg; half-life [2, 6]: 4 ± 0.2 h; AUC [2, 7]: 1.57 ± 0.235 µM·h; MRT [2, 7]: 5.8 ± 1 h; Tmax [2, 7]: 1.8 ± 0.5 h; bioavailability [2, 7]: 110 ± 41%; Cmax ([2]; male, beagle, plasma, sc, 67 ug/kg, dog, subcutaneous 67 μg/kg, Tables 6B/6C (Table I footnote: 0.2 M Tris buffer pH 8.0), read-out: Cmax): 252 ± 15 nM; half-life [2, 7]: 4.4 ± 1.4 h |

Second part, led by results:

| Exposure/dose during ipGTT in ob/ob mice [1] | Exposure in dogs (sc@67 μg/kg) [2, 3] | Exposure in dogs (sc@67 μg/kg) [2, 4] | Exposure in dogs (sc@67 μg/kg) [2, 5] | SMILES | Potency in ob/ob mice ED50 (C57BL/6J-ob/ob mice) | effect on postprandial plasma glucose (C57BL/6J-ob/ob mice) | also measured |
| --- | --- | --- | --- | --- | --- | --- | --- |
| 11 nM*h/nmol/kg | – | – | 1.467 µM·h | CCc1cc(O)ccc1-c1ccc(C[C@H](NC(=O)[C@H](CC(=O)O)NC(=O)[C@H](CO)NC(=O)[C@@H](NC(=O)C(C)(Cc2ccccc2F)NC(=O)[C@@H](NC(=O)CNC(=O)[C@H](CCC(=O)O)NC(=O)C2(C)CCCN2C(=O)[C@H](Cc2c[nH]cn2)NC(=O)OC)[C@@H](C)O)[C@@H](C)O)C(=O)N[C@@H](Cc2ccc(-c3ccccc3C)nc2)C(N)=O)cc1 (stereo partly shown) [SEQ ID NO: 158] (Moc-H[ξαMeP]EGT[ξαMePhe(2-F)]TSD[Phe(4-(2-Et-4-HO-Ph))][Ala(6-(2-MePh)pyridin-3-yl)]-NH2) | – | statistically significant decrease | – |
| 4.4 nM*h/nmol/kg | 4.02 µM·h | – | – | CCc1cc(OC)ccc1-c1ccc(C[C@H](NC(=O)[C@H](CC(=O)O)NC(=O)[C@H](CO)NC(=O)[C@@H](NC(=O)C(C)(Cc2ccccc2F)NC(=O)[C@@H](NC(=O)CNC(=O)[C@H](CCC(=O)O)NC(=O)C2(C)CCCN2C(=O)[C@@H](N)Cc2c[nH]cn2)[C@@H](C)O)[C@@H](C)O)C(=O)N[C@@H](Cc2ccc(-c3ccccc3C)nc2)C(N)=O)cc1 (stereo partly shown) [SEQ ID NO: 118] (H-H[ξαMeP]EGT[ξαMePhe(2-F)]TSD[Bip(2'-Et-4'-OMe)][Ala(6-(2-MePh)pyridin-3-yl)]-NH2) | 2.5 nmol/kg | statistically significant decrease | plasma glucose AUC decrease (C57BL/6J-ob/ob mice; 30 nmol/kg sc, ipGTT ob/ob mice): 81% |
